Assay [1] concerns the target Platelet-derived growth factor receptor beta (Mus musculus, UniProt P05622). The assay is described as follows: Inhibition of mouse PDGFRbeta expressed in SF9 insect cells by TR-FRET assay. In general terms: TR-FRET usually uses a lanthanide donor and a delayed reading to cut background.
The target of assay [2] is T1, Tyrosine-protein kinase BTK (Homo sapiens, UniProt Q06187). The assay is described as follows: Inhibition of BTK (unknown origin).
Assay [3] deals with Casein kinase 2 (Homo sapiens, UniProt P67870+P68400+P19784+Q8NEV1). Kind of assay: Inhibition of human recombinant casein kinase 2 using [gamma-32P] ATP. It is filed as protein assay.
Assay [4] in a line: Inhibition of Mycobacterium tuberculosis protein kinase B.
Assay [5] addresses T2, Serine/threonine-protein kinase pim-1 (Homo sapiens, UniProt P11309). Kind of assay: Inhibition of recombinant PIM1 (unknown origin) expressed in Escherichia coli BL21(DE3) after 1 hr by HTRF assay.
Target sequence in this assay (P11309 whole entry): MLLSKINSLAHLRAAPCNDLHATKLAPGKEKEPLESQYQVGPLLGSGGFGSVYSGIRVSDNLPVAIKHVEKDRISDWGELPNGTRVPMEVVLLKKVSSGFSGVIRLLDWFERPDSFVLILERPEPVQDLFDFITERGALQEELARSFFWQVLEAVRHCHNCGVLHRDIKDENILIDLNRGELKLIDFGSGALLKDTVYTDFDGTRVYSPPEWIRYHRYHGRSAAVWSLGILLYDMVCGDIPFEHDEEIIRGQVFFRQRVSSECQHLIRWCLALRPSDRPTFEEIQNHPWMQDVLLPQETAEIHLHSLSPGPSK
In assay [6] the target is T2, Serine/threonine-protein kinase pim-1. Kind of assay: Inhibition of PIM1-mediated BAD phosphorylation in human K562 cells after 12 hrs by Western blotting analysis. It is filed as cell-based. In general terms: In western blotting, separated proteins are transferred to a membrane and probed.
Target sequence in this assay (P11309 whole entry, looked up): as the sequence (P11309 whole entry) above
The target is the same in assay [7]. Kind of assay: Inhibition of PIM1-mediated BAD phosphorylation in human MV411 cells at 100 nM after 12 hrs by Western blotting analysis. The following applies: MV4-11. In kind it is cell-based.
Target sequence in this assay (P11309 whole entry, looked up): as the sequence (P11309 whole entry) above
Assay [8] addresses Serine/threonine-protein kinase Chk2 (Homo sapiens) (UniProt O96017). The assay is described as follows: Inhibition of CHK2 (unknown origin) using [gamma33P]ATP assessed as residual activity at 1 uM after 120 mins by radiometric assay.
Assay [9] concerns MV4-11. Kind of assay: Effect on total PIM1 level in human MV411 cells at 10 to 100 nM after 12 hrs by Western blotting analysis. In kind it is functional, cell-based.
Assay [10] addresses T2, Serine/threonine-protein kinase pim-1. Kind of assay: Inhibition of PIM1-mediated BAD phosphorylation in human K562 cells at 0.1 to 30 uM after 12 hrs by Western blotting analysis. It is filed as cell-based.
Target sequence in this assay (P11309 whole entry, looked up): as the sequence (P11309 whole entry) above
Assay [11] shares this target. The assay is described as follows: Inhibition of PIM1-mediated BAD phosphorylation in human MV411 cells after 12 hrs by Western blotting analysis. In kind it is cell-based. Particulars: MV4-11.
Target sequence in this assay (P11309 whole entry, looked up): as the sequence (P11309 whole entry) above
Assay [12] has the same target. The assay is described as follows: Inhibition of PIM1 (unknown origin) using [gamma33P]ATP assessed as residual activity at 1 uM after 120 mins by radiometric assayATP.
Target sequence in this assay (P11309 whole entry, looked up): as the sequence (P11309 whole entry) above
Assay [13] addresses Casein kinase II subunit alpha' (Homo sapiens) (UniProt P19784). Kind of assay: Inhibition of CK2alpha2 (unknown origin) using [gamma33P]ATP assessed as residual activity at 1 uM after 120 mins by radiometric assay.
For assay [14], the target named is T1, Tyrosine-protein kinase BTK. Kind of assay: Inhibition of BTK (unknown origin) using [gamma33P]ATP assessed as residual activity at 1 uM after 120 mins by radiometric assay.
For assay [15], the system named is MV4-11. The assay is described as follows: Effect on total BAD level in human MV411 cells at 10 to 100 nM after 12 hrs by Western blotting analysis. In kind it is functional, cell-based.
Assay [16] concerns the target RAC-alpha serine/threonine-protein kinase (Homo sapiens) (UniProt P31749). Kind of assay: Inhibition of AKT1 (unknown origin) using [gamma33P]ATP assessed as residual activity at 1 uM after 120 mins by radiometric assay.

Structures can show the parent of a compound that is named as a salt. Calls of active or inactive are those of the source. The rule behind the calls is not given here.

T1 sequence (Q06187 whole entry): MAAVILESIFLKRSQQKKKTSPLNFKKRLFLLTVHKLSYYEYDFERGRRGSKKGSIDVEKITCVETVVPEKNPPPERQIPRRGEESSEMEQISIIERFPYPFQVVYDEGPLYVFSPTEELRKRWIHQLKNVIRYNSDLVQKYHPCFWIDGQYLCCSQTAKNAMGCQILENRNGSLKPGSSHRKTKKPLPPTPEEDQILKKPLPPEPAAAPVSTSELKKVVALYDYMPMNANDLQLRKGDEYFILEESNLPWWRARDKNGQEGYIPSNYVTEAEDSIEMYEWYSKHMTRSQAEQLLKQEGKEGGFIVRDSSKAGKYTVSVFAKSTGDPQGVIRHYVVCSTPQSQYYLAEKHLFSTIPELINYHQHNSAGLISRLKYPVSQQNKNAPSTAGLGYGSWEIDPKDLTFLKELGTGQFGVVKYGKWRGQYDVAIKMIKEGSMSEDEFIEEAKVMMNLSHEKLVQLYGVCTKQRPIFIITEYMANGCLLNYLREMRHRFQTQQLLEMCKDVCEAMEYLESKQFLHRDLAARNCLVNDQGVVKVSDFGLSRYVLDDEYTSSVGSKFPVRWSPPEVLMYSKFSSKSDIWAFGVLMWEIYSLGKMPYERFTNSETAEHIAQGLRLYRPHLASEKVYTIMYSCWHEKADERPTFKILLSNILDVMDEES
Sequence of Casein kinase II subunit alpha' (Homo sapiens) (P19784 whole entry, looked up): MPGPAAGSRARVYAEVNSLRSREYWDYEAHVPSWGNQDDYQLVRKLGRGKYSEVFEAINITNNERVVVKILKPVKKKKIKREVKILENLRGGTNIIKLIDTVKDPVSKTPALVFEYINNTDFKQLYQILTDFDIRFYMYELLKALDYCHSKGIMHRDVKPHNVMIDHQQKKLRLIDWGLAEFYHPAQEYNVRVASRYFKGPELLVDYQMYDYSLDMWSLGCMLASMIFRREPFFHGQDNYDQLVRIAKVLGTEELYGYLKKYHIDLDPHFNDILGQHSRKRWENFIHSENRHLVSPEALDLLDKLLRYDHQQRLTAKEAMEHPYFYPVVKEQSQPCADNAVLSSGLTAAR
Sequence of Serine/threonine-protein kinase Chk2 (Homo sapiens) (O96017 whole entry): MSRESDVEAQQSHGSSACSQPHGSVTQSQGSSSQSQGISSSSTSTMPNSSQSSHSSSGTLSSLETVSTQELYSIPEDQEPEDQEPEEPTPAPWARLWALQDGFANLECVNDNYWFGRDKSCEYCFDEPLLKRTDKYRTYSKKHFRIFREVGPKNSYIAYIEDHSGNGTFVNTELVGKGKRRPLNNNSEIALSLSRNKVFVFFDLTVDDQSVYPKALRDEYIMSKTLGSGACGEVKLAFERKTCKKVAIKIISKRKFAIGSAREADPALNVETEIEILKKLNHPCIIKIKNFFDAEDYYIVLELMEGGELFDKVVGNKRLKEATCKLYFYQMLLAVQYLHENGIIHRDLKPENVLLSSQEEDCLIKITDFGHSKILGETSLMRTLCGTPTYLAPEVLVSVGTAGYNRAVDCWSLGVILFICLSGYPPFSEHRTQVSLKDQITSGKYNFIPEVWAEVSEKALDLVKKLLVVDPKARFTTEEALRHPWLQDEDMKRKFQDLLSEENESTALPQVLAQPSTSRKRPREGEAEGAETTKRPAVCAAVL
Sequence of Platelet-derived growth factor receptor beta (P05622 whole entry): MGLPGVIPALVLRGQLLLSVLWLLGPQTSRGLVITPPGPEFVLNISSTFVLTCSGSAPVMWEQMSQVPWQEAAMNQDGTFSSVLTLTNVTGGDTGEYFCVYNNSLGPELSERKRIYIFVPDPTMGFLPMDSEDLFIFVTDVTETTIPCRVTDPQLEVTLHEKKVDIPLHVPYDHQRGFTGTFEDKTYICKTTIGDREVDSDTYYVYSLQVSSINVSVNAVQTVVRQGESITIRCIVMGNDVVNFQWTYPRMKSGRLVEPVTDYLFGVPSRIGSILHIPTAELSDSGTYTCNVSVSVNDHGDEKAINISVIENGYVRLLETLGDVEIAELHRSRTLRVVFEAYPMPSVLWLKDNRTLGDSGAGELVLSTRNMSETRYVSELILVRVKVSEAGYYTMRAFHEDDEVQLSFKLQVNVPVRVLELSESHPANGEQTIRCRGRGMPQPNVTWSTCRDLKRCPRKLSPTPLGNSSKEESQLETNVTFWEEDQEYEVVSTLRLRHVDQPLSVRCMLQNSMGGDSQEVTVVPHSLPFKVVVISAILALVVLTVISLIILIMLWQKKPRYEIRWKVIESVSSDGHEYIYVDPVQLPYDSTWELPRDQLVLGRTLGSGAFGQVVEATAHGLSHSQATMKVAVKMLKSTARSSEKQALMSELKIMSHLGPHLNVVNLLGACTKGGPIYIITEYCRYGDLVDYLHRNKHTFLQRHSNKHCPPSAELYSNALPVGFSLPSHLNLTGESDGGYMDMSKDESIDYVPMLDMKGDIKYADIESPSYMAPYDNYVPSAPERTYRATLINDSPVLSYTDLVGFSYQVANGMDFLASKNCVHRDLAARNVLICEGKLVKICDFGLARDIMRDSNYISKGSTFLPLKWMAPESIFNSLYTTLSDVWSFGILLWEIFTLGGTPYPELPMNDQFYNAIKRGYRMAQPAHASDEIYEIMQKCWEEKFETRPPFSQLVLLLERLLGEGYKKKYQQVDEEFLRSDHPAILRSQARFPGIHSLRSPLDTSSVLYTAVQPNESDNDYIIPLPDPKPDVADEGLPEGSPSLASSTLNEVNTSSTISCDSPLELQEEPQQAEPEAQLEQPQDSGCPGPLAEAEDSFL
Sequence of RAC-alpha serine/threonine-protein kinase (Homo sapiens) (P31749 whole entry): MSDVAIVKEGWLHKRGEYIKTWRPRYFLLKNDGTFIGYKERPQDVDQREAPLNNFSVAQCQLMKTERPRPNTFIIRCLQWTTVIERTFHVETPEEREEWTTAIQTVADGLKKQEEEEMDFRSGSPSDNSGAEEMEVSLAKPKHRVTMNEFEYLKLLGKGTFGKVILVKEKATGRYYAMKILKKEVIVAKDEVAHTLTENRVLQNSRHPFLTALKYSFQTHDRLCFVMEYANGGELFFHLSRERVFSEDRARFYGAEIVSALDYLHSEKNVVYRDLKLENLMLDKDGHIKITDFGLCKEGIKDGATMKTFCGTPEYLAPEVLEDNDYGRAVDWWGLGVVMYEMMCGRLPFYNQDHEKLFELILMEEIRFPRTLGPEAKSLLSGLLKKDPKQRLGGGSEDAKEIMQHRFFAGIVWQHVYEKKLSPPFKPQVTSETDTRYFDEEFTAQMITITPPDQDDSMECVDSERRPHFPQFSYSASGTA

Broadly, the IC50 is the concentration that inhibits the measured activity by half. Turning to `CNC(=O)c1cc(Oc2ccc(NC(=O)Nc3ccc(Cl)c(C(F)(F)F)c3)cc2)ccn1` [SORAFENIB], the IC50 in assay [1] is less than 100 nM.
Turning to `O=C1c2c(O)ccc(O)c2C(=O)c2c(NCCNCCO)ccc(NCCNCCO)c21` [MITOXANTRONE], the IC50 in assay [2] was 1000 nM; in [3], 660 nM; in assay [4] it was 800 nM.
`O=C1c2c(O)ccc(O)c2C(=O)c2c(NCCNCCO)ccc(NCCNCCO)c21` [MITOXANTRONE HYDROCHLORIDE]: the IC50 in assay [5] worked out at 50.9 nM.
Consider `O=C1c2c(O)ccc(O)c2C(=O)c2c(NCCNCCO)ccc(NCCNCCO)c21`, for which the inhibition result in assay [6] and in assay [11] was “Dose-dependent effect” throughout. The inhibition result in assay [7] and in [10] was “Active” throughout. Moreover, the Activity in [8] was determined as 59.7%; in assay [12], 0.86%; in assay [13] it was 81.8%; in [14] it was 45.9%; in assay [16], 109%. For the same molecule, the outcome in assay [9] and in assay [15] was inactive.

The record behind these values is ChEMBL document CHEMBL2321759, “A new target for an old drug: identifying mitoxantrone as a nanomolar inhibitor of PIM1 kinase via kinome-wide selectivity modeling” (J Med Chem, 2013).
